Consider ten compounds from patent publication US8816079B2, “Amide derivative and use thereof as medicine” (Mitsubishi Tanabe Pharma Corporation, priority 2010, dated 2014).

The term IC50 denotes the concentration at which inhibition is half-maximal.

Assay [1] deals with rat dinitrobenzene-induced colitis model. Briefly: large intestine weight increase of rat dinitrobenzene-induced colitis model. Format: in vivo. Conditions: Wistar rat, 10 mg/kg oral once a day, day 8; normal group 0.215 ± 0.011, pathology group 0.633 ± 0.041. The method, then: A dinitrobenzene solution (30 mg/0.1 mL) was injected into the large intestine of anesthetized rats (Wistar, male, 6-week-old). […] On day 8, the large intestine was isolated from euthanized rats, and the wet weight thereof was measured. The large intestine weight was amended to the weight per 100 g body weight of the rats on day 8.

Assay [2] concerns rat adjuvant induced arthritis model. Description: hindpaw edema of rat adjuvant induced arthritis model. The note with it: LEW rat, 10 mg/kg oral once a day day 15 to day 20, difference of hindpaw volume day 15 to day 21; disease group (solvent) 0.63 ± 0.13. Format: in vivo. The protocol: Anesthetized rats (LEW, male, 6-week-old) were immunized with M. Butyricum (5 mg/mL) at a dose of 0.1 mL/body by subcutaneous administration from the tail root. […] […] The amount of hindpaw edema was the difference in the amount between hindpaw volume on day 15 and that on day 21.

The subject of assay [3] is proMMP-9 production by human TNFα stimulated THP-1 cell. Briefly: proMMP-9 production by human TNFα stimulated THP-1 cell. Format: cell-based. Conditions: THP-1 cells, human TNFα 10 ng/mL, 24 hr; IC50 from 3 points at 10, 100 and 1,000 nmol/L; read-out: proMMP-9 production suppression (IC50). The protocol: THP-1 cell (human monocytic leukemia cell line) was adjusted to 1×10^7 cells/mL in a culture medium (10% fetal bovine serum/RPMI1640 medium), and dispensed to a 96 well multiplate. This was equilibrated under the conditions of 37° C./5% CO2, and a culture medium containing human TNFα (final concentration 10 ng/mL) and a test compound was added thereto. After incubation under the conditions of 37° C./5% CO2 for 24 hr, the culture medium was centrifuged and the culture supernatant was collected, which was subjected to the following measurement.
Quantification of proMMP-9 in Culture Supernatant
The proMMP-9 concentration of the collected culture supernatant was quantified using a commercially available measurement reagent (manufactured by GE Healthcare, MMP-9, Human, Biotrak ELISA System).
Calculation of proMMP-9 Suppression Rate
The proMMP-9 suppression rate of the test compound was calculated from the following formula: % suppression=100−((Test−Min)/(Max−Min)×100) wherein Max is proMMP-9 concentration of culture supernatant induced by stimulation with human TNFα, without addition of a test compound (added with solvent alone) Min is proMMP-9 concentration of culture supernatant without addition of a test compound (added with solvent alone) and without stimulation with human TNFα, and Test is proMMP-9 concentration of culture supernatant induced by stimulation with human TNFα when a test compound is added.
Furthermore, the concentration of the test compound necessary for suppressing proMMP-9 production by human TNFα stimulated THP-1 cell by 50% ([…]) was calculated from 3 points of proMMP-9 suppression rate at test compound concentrations of 10, 100 and 1,000 nmol/L.

The test system of assay [4] is proMMP-2 production by THP-1 cell. Briefly: hemostatic type proMMP-2 production by THP-1 cell. Format: cell-based, human. Conditions: THP-1 cells without stimulation, 24 hr, test compound 2 μM. The protocol:
THP-1 cell (human monocytic leukemia cell line) was adjusted to 1×10^7 cells/mL in a culture medium (10% fetal bovine serum/RPMI1640 medium), and dispensed to a 96 well multiplate. This was equilibrated under the conditions of 37° C./5% CO2, and a culture medium containing a test compound was added thereto. After incubation under the conditions of 37° C./5% CO2 for 24 hr, the culture medium was centrifuged and the culture supernatant was collected, which was subjected to the following measurement.
Quantification of proMMP-2 in Culture Supernatant
The proMMP-2 concentration of the collected culture supernatant was quantified using a commercially available measurement reagent (manufactured by GE Healthcare, MMP-2, Human, Biotrak ELISA System).
Calculation of proMMP-2 Suppression Rate
The proMMP-2 suppression rate of the test compound was calculated from the following formula: % suppress=100−((Test/Cont)×100). wherein Cont is proMMP-2 concentration of culture supernatant without addition of a test compound (added with solvent alone) and Test is proMMP-2 concentration of culture supernatant with addition of a test compound.

The test system of assay [5] is rat monoiodoacetic acid-induced osteoarthritis model. Description: articular joints injury of rat monoiodoacetic acid-induced osteoarthritis model. Format: in vivo. The note with it: LEW rat, 10 mg/kg oral once a day to day 6, scored on day 7; disease group (solvent) 5.8 ± 0.2. The method, then:
Monoiodoacetic acid solution (0.3 mg/25 μL) was injected into the right hindpaw knee joint cavity of anesthetized rats (LEW, male, 7-week-old). A test compound was orally administered once a day from immediately after monoiodoacetic acid injection to day 6 at a dose of 10 mg/kg. On day 7, right hindpaw knee joint was taken from euthanized rats, and fixed with 10% neutral formalin solution. A pathology specimen of knee joint was prepared, stained with Hematoxylin Eosin and Safranine O, and the state of joint cartilage injury was scored under microscopic observation. For articular joint injury scores, changes in each pathological finding in medial condyle of femur and medial condyle of tibia (cartilage surface tuberosity, erosion/ulcer/fibrillation, chondrocyte disorganization/disappearance/hypertrophy, reduction of Safranine staining) were divided into mild, moderate and severe according to the method of Kobayashi et al. (Kobayashi K et al. J. Vet. Med. Sci. 65, 1195 1199 2003), and indicated in the scores of 1, 2 and 3 and totaled. Furthermore, an average of the score of medial condyle of femur and that of medial condyle of tibia was determined and used as an articular joint injury score.

As to `Cc1ccc(N2CCN(C(=O)c3ccc(N4CCCS4(=O)=O)cc3S(C)(=O)=O)CC2)c(C)c1` [Example 11, [4-(2,4-dimethylphenyl)piperazin-1-yl][4-(1,1-dioxo-1λ^6-isothiazolidin-2-yl)-2-methanesulfonylphenyl]methanone], the “large intestine weight (g/100 g body weight)” value in assay [1] is reported as 0.509 ± 0.051 g/100 g body weight. The “hindpaw edema volume of compound administration group” value in assay [2] is listed as 0.24 ± 0.10.

With `Cc1cnc(N2CCN(C(=O)c3ccc(N4CCCS4(=O)=O)cc3F)CC2)c(C)c1` [Example 130, [4-(3,5-dimethylpyridin-2-yl)piperazin-1-yl][4-(1,1-dioxo-1λ^6-isothiazolidin-2-yl)-2-fluorophenyl]methanone], the IC50 in assay [3] was 44 nM. Moreover, the “MMP-2 production suppression (% suppression, 2 μM)” value in assay [4] was found to be 8.0%.

Consider `Cc1cnc(N2CCN(C(=O)c3ccc(N4CCCS4(=O)=O)cc3C)CC2)c(C)c1` [Example 154, [4-(3,5-Dimethylpyridin-2-yl)piperazin-1-yl][4-(1,1-dioxo-1λ^6-isothiazolidin-2-yl)-2-methylphenyl]methanone], for which the “articular joint injury score of compound administration group” value in assay [5] is recorded as 4.6 ± 0.4. The half-inhibitory concentration (IC50) in assay [3] was determined as 82 nM. The “MMP-2 production suppression (% suppression, 2 μM)” value in assay [4] amounted to 13.0%.

`Cc1cc(C2CC2)cnc1N1CCN(C(=O)c2ccc(CN3CCCS3(=O)=O)cc2)CC1` [Example 245, [4-(5-cyclopropyl-3-methylpyridin-2-yl)piperazin-1-yl][4-(1,1-dioxo-1λ^6-isothiazolidin-2-ylmethyl)phenyl]methanone]: in assay [3], the IC50 was found to be 73 nM.

With `Cc1cnc(N2CCN(C(=O)c3ccc(N4CCCC4=O)cc3F)CC2)c(C)c1` [Example 282, 1-{4-[4-(3,5-dimethylpyridin-2-yl)piperazine-1-carbonyl]-3-fluorophenyl}pyrrolidin-2-one], the half-inhibitory concentration (IC50) in assay [3] came out at 76 nM.

With `Cc1cnc(N2CCN(C(=O)c3ccc(N4CCNC4=O)cc3F)CC2)c(C)c1` [Example 416, 1-{4-[4-(3,5-dimethylpyridin-2-yl)piperazine-1-carbonyl]-3-fluorophenyl}imidazolidin-2-one], the IC50 in assay [3] worked out at 10 nM.

Regarding `CC(=O)Nc1ccc(C(=O)N2CCN(c3ccc(C)cc3C)CC2)c(S(C)(=O)=O)c1` [Example 474, N-{4-[4-(2,4-dimethylphenyl)piperazine-1-carbonyl]-3-methanesulfonylphenyl}acetamide], the half-maximal inhibitory concentration (IC50) in assay [3] was 36 nM.

Regarding `Cc1cnc(N2CCN(C(=O)c3ccc(N(C)S(C)(=O)=O)cc3F)CC2)c(C)c1` [Example 494, N-{4-[4-(3,5-dimethylpyridin-2-yl)piperazine-1-carbonyl]-3-fluorophenyl}-N-methylmethanesulfonamide], in assay [3], the IC50 was determined as 102 nM.

For the compound `Cc1cc(C)c(N2CCN(C(=O)c3ccc(N4C(=O)NC(=O)C4C)nc3)CC2)nc1C` (centres unmarked) [Example 549, 5-methyl-1-{5-[4-(3,5,6-trimethylpyridin-2-yl)piperazine-1-carbonyl]pyridin-2-yl}imidazolidine-2,4-dione], the IC50 in assay [3] is 7 nM.

As for `Cc1cc(C2CC2)cnc1N1CCN(C(=O)c2cnc(N3C(=O)CCC3C)cn2)CC1` (centres unmarked) [Example 687, 1-{5-[4-(5-cyclopropyl-3-methylpyridin-2-yl)piperazine-1-carbonyl]pyrazin-2-yl}-5-methylpyrrolidin-2-one], in assay [3], the half-maximal inhibitory concentration (IC50) stood at 41 nM.
